Assay results reported in ChEMBL document CHEMBL4251553, “Synthesis, anticancer evaluation and pharmacokinetic study of novel 10-O-phenyl ethers of dihydroartemisinin” (Eur J Med Chem, 2017).

Experiments:
MCF7 [1] = assay: Antiproliferative activity against human MCF7 cells after 96 hrs by MTT assay; assay type: functional; settings: MCF7, 96 h
NCI/ADR-RES [2] = assay: Antiproliferative activity against human MCF7/ADR cells after 96 hrs by MTT assay; assay type: functional
MCF7 [3] = assay: Cell cycle arrest in human MCF7 cells assessed as accumulation at sub-G1 phase at 0.5 uM after 48 hrs by propidium iodide staining based flow cytometry (reference value: 0.18%); assay type: functional
MCF7 [4] = assay: Cell cycle arrest in human MCF7 cells assessed as accumulation at G2/M phase at 0.5 uM after 48 hrs by propidium iodide staining based flow cytometry (reference value: 24.26%); assay type: functional
MCF7 [5] = assay: Cell cycle arrest in human MCF7 cells assessed as accumulation at G0/G1 phase at 1 uM after 48 hrs by propidium iodide staining based flow cytometry (reference value: 57.21%); assay type: functional
NCI/ADR-RES [6] = assay: Cell cycle arrest in human MCF7/ADR cells assessed as accumulation at sub-G1 phase at 0.5 uM after 24 hrs by propidium iodide staining based flow cytometry (reference value: 1.08%); assay type: functional
NCI/ADR-RES [7] = assay: Cell cycle arrest in human MCF7/ADR cells assessed as accumulation at G0/G1 phase at 0.5 uM after 24 hrs by propidium iodide staining based flow cytometry (reference value: 45.98%); assay type: functional
NCI/ADR-RES [8] = assay: Cell cycle arrest in human MCF7/ADR cells assessed as accumulation at S-phase at 0.5 uM after 24 hrs by propidium iodide staining based flow cytometry (reference value: 25.87%); assay type: functional
NCI/ADR-RES [9] = assay: Cell cycle arrest in human MCF7/ADR cells assessed as accumulation at G2/M phase at 0.5 uM after 24 hrs by propidium iodide staining based flow cytometry (reference value: 27.75%); assay type: functional
NCI/ADR-RES [10] = assay: Cell cycle arrest in human MCF7/ADR cells assessed as accumulation at G0/G1 phase at 1 uM after 24 hrs by propidium iodide staining based flow cytometry (reference value: 45.98%); assay type: functional
NCI/ADR-RES [11] = assay: Cell cycle arrest in human MCF7/ADR cells assessed as accumulation at G0/G1 phase at 0.5 uM after 48 hrs by propidium iodide staining based flow cytometry (reference value: 38.76%); assay type: functional
NCI/ADR-RES [12] = assay: Cell cycle arrest in human MCF7/ADR cells assessed as accumulation at G2/M phase at 0.5 uM after 48 hrs by propidium iodide staining based flow cytometry (reference value: 31.94%); assay type: functional
NCI/ADR-RES [13] = assay: Cell cycle arrest in human MCF7/ADR cells assessed as accumulation at G0/G1 phase at 1 uM after 48 hrs by propidium iodide staining based flow cytometry (reference value: 38.76%); assay type: functional
[14] = Apparent clearance in Sprague-Dawley rat at 10 mg/kg, iv administered as single dose by LC-MS/MS analysis; assay type: ADME, organism-based; settings: in vivo, read-out: CL(app) (converted)
[15] = Plasma concentration in Sprague-Dawley rat at 10 mg/kg, iv administered as single dose measured at 2 hrs post dosing by LC-MS/MS analysis; assay type: ADME, organism-based
[16] = Plasma concentration in Sprague-Dawley rat at 10 mg/kg, iv administered as single dose measured at 4 hrs post dosing by LC-MS/MS analysis; assay type: ADME, organism-based

## C[C@H]1[C@@H](Oc2ccc(-c3cc(-c4ccccc4)[nH]n3)cc2)O[C@@H]2O[C@@]3(C)CC[C@H]4[C@H](C)CC[C@@H]1[C@@]24OO3
MCF7 [1]
  GI50: 210 nM
NCI/ADR-RES [2]
  GI50: 18 nM
MCF7 [3]
  Activity: 0.38%
MCF7 [4]
  Activity: 17.38%
MCF7 [5]
  Activity: 85.04%
NCI/ADR-RES [6]
  Activity: 1.89%
NCI/ADR-RES [7]
  Activity: 50.52%
NCI/ADR-RES [8]
  Activity: 21.64%
NCI/ADR-RES [9]
  Activity: 26.29%
NCI/ADR-RES [10]
  Activity: 61.78%
NCI/ADR-RES [11]
  Activity: 46.94%
NCI/ADR-RES [12]
  Activity: 30.15%
NCI/ADR-RES [13]
  Activity: 56.01%
[14]
  clearance: 57.7 mL/min/kg
[15]
  concentration at 2 h: 227 ng/mL
[16]
  concentration at 4 h: 147 ng/mL
